This note sets out measurements from the METLIN SMRT retention time set (Domingo-Almenara et al. 2019).

This series can be described thus: gradient 5% acetonitrile 3 min, to 50% in 2 min, to 85% in 15 min, held 3 min, 100 µL/min. Conditions: column: Zorbax Extend-C18 2.1 x 50 mm; eluents: water / acetonitrile, 0.1% formic acid. The gist of the method: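 Data were gathered over 3 months by HPLC coupled to a quadrupole time-of-flight mass spectrometer, operated in positive and negative ionization mode. Mixtures of ~100 pure standards ran on a Zorbax Extend-C18 column (2.1 × 50 mm, 1.8 μm) at 100 μL/min, with water and acetonitrile each containing 0.1% formic acid and dead and dwell volumes of 40 μL and 900 μL. Retention time was read from adduct peaks picked by computer and checked manually.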
`CC(C)c1noc(-c2cc(=O)n(CC(=O)NCc3ccccc3F)c3ccccc23)n1` displayed an RP-LC retention time of 959 s.

For `O=C(NCc1ccco1)C1CCN(c2cnn(Cc3ccccc3)c(=O)c2)CC1`, the RP-LC retention time was 723 s.

The compound `Cc1ccc(F)cc1NS(=O)(=O)c1cc2c(s1)CCN(C(=O)C1CC1)C2` yielded an RP-LC retention time of 839 s.

As to `O=C1NC2(CCN(C(=O)Nc3cccc(F)c3)CC2)Oc2ccccc21`, the RP-LC retention time came out at 743 s.

As for `COc1ccccc1CNC(=O)C1CCCN(C(=O)c2cc3sccc3n2C)C1` (centres undefined), the RP-LC retention time is 852 s.

Take `COC(=O)CNC(=O)Nc1cc(F)c2nc(N3CCOCC3)ccc2c1`: the RP-LC retention time was determined as 620 s.

`COc1ccc(-c2nc3cnccn3c2Nc2ccc(F)cc2)cc1OC` had an RP-LC retention time of 768 s.

Compound `Cc1ccc(NC(=O)Cn2c(=O)nc(N3CCCC(C)C3)c3ccccc32)cc1C` (centres undefined) came in with an RP-LC retention time of 895 s.

Compound `Cc1cc(=O)n(CC(=O)Nc2ccc3c(c2)OCCO3)c(N2CCc3ccccc3C2)n1` registered an RP-LC retention time of 732 s.

Compound `O=C(NCCCN1CCOCC1)c1ccc(CS(=O)Cc2cccc(Cl)c2)o1` (centres undefined) yielded an RP-LC retention time of 610 s.

For the compound `Cc1ccnc(N2CCC(C(=O)NCCCN3CCCCCC3)CC2)n1`, the RP-LC retention time came out at 556 s.

In turn, `CN(CC(=O)NCc1ccncc1)c1nc2c(Cl)cccc2s1` gave an RP-LC retention time of 564 s.

Compound `COCCCNC(=O)Cn1nc(C)c2sc(-c3ccccc3)nc2c1=O` came in with an RP-LC retention time of 706 s.

Compound `Cc1ccccc1CNC(=O)Cn1c(C)nc2onc(C)c2c1=O` displayed an RP-LC retention time of 752 s.

`COC(=O)CCc1c(C)nc2c(c(-c3cccs3)nn2C2CCS(=O)(=O)C2)c1C` (centres undefined) showed an RP-LC retention time of 850 s.

As for `CCOC(=O)c1c(C)[nH]c(CCC(=O)NCc2ccc3c(c2)OCO3)c1C`, the RP-LC retention time stood at 738 s.

`Brc1cccc(-c2nn3c(-c4ccccn4)nnc3s2)c1` registered an RP-LC retention time of 860 s.

On to `CC1=C(c2ccc(Cl)cc2)S(=O)(=O)N=C1N1CCC(C(=O)NCCN(C)C)CC1`, for which the RP-LC retention time was found to be 642 s.

With `CCOC(=O)N1CCC(NC(=O)Cn2cc(-c3ccc(C)cc3)oc2=O)CC1`, the RP-LC retention time came to 772 s.

`COC(=O)C1CN(c2ccc(OC)cc2)N=C1C(C)=O` (centres undefined) yielded an RP-LC retention time of 850 s.

Compound `O=C(Cc1cn(Cc2ccc(Cl)cc2)c2ccccc12)NC1CC1` displayed an RP-LC retention time of 884 s.

Compound `O=c1c2cc(-c3cccs3)nn2cnn1Cc1nc(-c2cccc(C(F)(F)F)c2)no1` displayed an RP-LC retention time of 1140 s.

With `COc1ccc(-c2nc3cc(C)ccn3c2NC(=O)c2cc(OC)c(OC)c(OC)c2)cc1`, the RP-LC retention time amounted to 664 s.

Compound `COc1ccc(NC(=O)Cn2cccc2-c2nnc(-c3ccccc3)o2)c(OC)c1` yielded an RP-LC retention time of 993 s.

Compound `CC(NC(=O)c1ccc2ncnc(N3CCCCC3)c2c1)c1ccc(F)cc1` (centres undefined) registered an RP-LC retention time of 687 s.

Consider `Cc1cccc(OCc2nc(CCN(C)C(=O)NCc3ccccc3)no2)c1`, for which the RP-LC retention time was 832 s.

As to `CCOc1ccc(-c2ccc(N3CCN(C(=O)Cc4noc5ccccc45)CC3)nn2)cc1`, the RP-LC retention time turned out to be 672 s.

`CCCn1c(-c2cccc(C(=O)NC(C)c3ccc(C)cc3C)c2)nc2cccnc21` (centres undefined) had an RP-LC retention time of 955 s.

In turn, `O=S(=O)(c1cccc(-c2nnc(-c3ccccc3Br)o2)c1)N1CCCC1` gave an RP-LC retention time of 1040 s.

On to `CCOC(=O)CNC(=O)NCCc1nc2cccnc2n1-c1ccccc1`, for which the RP-LC retention time was found to be 608 s.

`CCCNC(=O)N1CCN(c2nc3c(s2)CN(C(=O)CC)CC3)CC1`: the RP-LC retention time amounted to 602 s.

In turn, `Cc1ccc(CNC(=O)C2CCN(C(=O)C3Sc4ccccc4NC3=O)CC2)cc1` (centres undefined) showed an RP-LC retention time of 818 s.

`Cc1nc2cc(-c3noc(C4(c5ccccc5)CC4)n3)ccc2o1` gave an RP-LC retention time of 1110 s.

As for `CC(=O)N1CCC(n2c(C)nc(C(=O)Nc3ccc4c(c3)OCO4)c2C)CC1`, the RP-LC retention time was 603 s.

Compound `Cc1noc(C)c1C1CCCN1C(=O)NC(C)C` (centres undefined) showed an RP-LC retention time of 656 s.

On to `CCNc1cc(C)nc(N2CCN(C(=O)C(C)C)CC2)n1`, for which the RP-LC retention time is 598 s.

`CCn1cnc(S(=O)(=O)N2CCCC(C(=O)Nc3ccc(F)cc3F)C2)c1` (centres undefined): the RP-LC retention time was found to be 742 s.

Consider `Cc1ccc(C)c(N2CCN(c3ccnc(SCC(=O)Nc4ccc(Cl)cc4)n3)CC2)c1`, for which the RP-LC retention time was 967 s.

In turn, `Cc1nn(-c2ccc(C(=O)N3CCOCC3)cc2)c2c1C(=O)CC(C)(C)C2` returned an RP-LC retention time of 689 s.

`Cc1ccc(C#CC(C)(O)C(C)(C)C)cn1` (centres undefined) yielded an RP-LC retention time of 722 s.

`Cn1nc(-c2nnc(-c3ccccc3F)o2)c2c1CCN(S(=O)(=O)c1ccc3c(c1)CCCC3)C2` displayed an RP-LC retention time of 1090 s.

With `COc1ccc2nc(NC3=NCN(Cc4ccccc4)CN3)nc(C)c2c1`, the RP-LC retention time amounted to 746 s.

Regarding `CCOC(=O)c1[nH]c(C)c(CCC(=O)N2CCC(C(=O)NC(C)c3ccccc3)CC2)c1C` (centres undefined), the RP-LC retention time turned out to be 792 s.

Consider `CN(C)C(=O)c1n[nH]c2c1CN(C(=O)c1cccc(Cl)c1)CC2`, for which the RP-LC retention time turned out to be 642 s.

Turning to `Cc1ccc(F)cc1S(=O)(=O)N1CCC(n2c(-c3ccco3)nc3cccnc32)C1` (centres undefined), the RP-LC retention time was found to be 910 s.

The compound `CC(C)C(NC(=O)c1cccc(CN2C(=O)C3CCCN3C(=O)c3ccccc32)c1)c1cccs1` (centres undefined) showed an RP-LC retention time of 882 s.

Take `CNC(=O)Oc1ccc(N(C)C)cc1C(C)C`: the RP-LC retention time amounted to 642 s.

In turn, `Cc1ccc(Cl)cc1NC(=O)N1CCN(c2ccc(=O)n(-c3ccccc3)n2)CC1` yielded an RP-LC retention time of 838 s.

Compound `CCn1ncn2cc(S(=O)(=O)Nc3ccc(C)c(F)c3)cc2c1=O` displayed an RP-LC retention time of 909 s.

On to `COc1ccc(NC(=O)C2CC(=O)N(CCc3c[nH]c4ccc(Cl)cc34)C2)cc1` (centres undefined), for which the RP-LC retention time amounted to 818 s.

On to `CC(C)NC(=O)NCCC1CCN(S(=O)(=O)c2ccccc2)CC1`, for which the RP-LC retention time turned out to be 732 s.

`Cc1ccc2c(c1)N(Cc1ccc(F)cc1)N=C(C(=O)N1CCCC1)S2(=O)=O` registered an RP-LC retention time of 889 s.

Compound `COC(=O)c1cccc(C(=O)Nc2ccc(C)cc2Cl)n1` returned an RP-LC retention time of 1100 s.

In the case of `COc1ccc(OC)c(NC(=O)c2cnc(-c3ccc(F)cc3)nc2-c2ccncc2)c1`, the RP-LC retention time was determined as 915 s.

Turning to `Cc1nc(-c2cc(S(=O)(=O)N3CCC(C(=O)NCCc4cccs4)CC3)c(C)s2)no1`, the RP-LC retention time is 919 s.

Take `O=C(C1CCN(c2nc3ccc(-c4ccccc4)nc3s2)CC1)N1CCCCC1`: the RP-LC retention time was 1040 s.

Turning to `Cn1c(CNC(=O)CSc2nnc3c4ccccc4nc(-c4ccco4)n23)nc2ccccc21`, the RP-LC retention time stood at 632 s.

`Cc1cccc(CNC(=O)C2CCCN(c3ccc4cc(S(=O)(=O)N5CCCC5)ccc4n3)C2)c1` (centres undefined) had an RP-LC retention time of 774 s.

For `CCN1CN=C(Nc2nc(C)c3cc(OC)ccc3n2)NC1`, the RP-LC retention time is 622 s.

For `CCCCNC(=O)C1CCC(=O)N(c2ccc(OC)cc2)C1c1ccc(OC)cc1` (centres undefined), the RP-LC retention time was 756 s.

As to `CC(=O)N1CCc2cc(C)c(S(=O)(=O)Nc3cccc(F)c3)cc21`, the RP-LC retention time came to 731 s.

In turn, `Cc1ccc(/C=C/S(=O)(=O)N2CC(c3nc(-c4cccs4)no3)C2)cc1` showed an RP-LC retention time of 996 s.

As for `O=C(c1ccccc1)N1C[C@@H]2C[C@H]1C[C@@H]2NS(=O)(=O)c1ccccc1`, the RP-LC retention time was determined as 752 s.

The compound `CCc1nc(-c2csc(S(=O)(=O)N3CCC(C(=O)NC4CCCC4)CC3)c2)no1` showed an RP-LC retention time of 880 s.

Turning to `CCC(=O)N1CCN(c2nc3c(s2)CC(C(=O)NCC(C)C)CC3)CC1` (centres undefined), the RP-LC retention time came out at 534 s.

Compound `Cc1cc(=O)n(CC(=O)N(C)c2ccccc2)c(N2CCCC2)n1` registered an RP-LC retention time of 625 s.

Compound `CCOC(=O)C1=C(CN2CCN(Cc3ccccc3)CC2)NC(=O)NC1c1cccc(OC)c1OC` (centres undefined) had an RP-LC retention time of 660 s.

With `COC(=O)c1c(C)[nH]c(C(=O)N2CCC(CC(=O)NCCCN3CCOCC3)CC2)c1C`, the RP-LC retention time stood at 575 s.

`Cn1c(C(=O)Nc2ccc(F)cc2F)cc2c(=O)oc3ccccc3c21` returned an RP-LC retention time of 923 s.

As to `COc1cccc(C(=O)NCc2ccc3[nH]c4c(c3c2)CCCC4)c1OC`, the RP-LC retention time stood at 910 s.

The compound `Cc1cc(C)c(CNC(=O)c2nnc(-c3ccc(S(=O)(=O)N(C)C)cc3)o2)c(C)c1` yielded an RP-LC retention time of 1010 s.

`COc1ccc(NC(=O)N2CCC(n3cnc4cc(F)ccc4c3=O)CC2)c(OC)c1` came in with an RP-LC retention time of 732 s.

`Cc1[nH]c(C)c(S(=O)(=O)N2CCC(C(=O)N3CCc4ccccc43)CC2)c1C(=O)N1CCCC1` gave an RP-LC retention time of 716 s.

Regarding `O=C(Nc1ccccc1Br)N[C@@H]1CCN(c2ccc(C(F)(F)F)cn2)C1`, the RP-LC retention time is 937 s.

Compound `Cc1ccc2oc(=O)n(Cc3noc(C(=O)NCc4ccc(Br)cc4)n3)c2c1` registered an RP-LC retention time of 952 s.

Take `Cc1ccc(-c2nc(-c3cccc(-c4ccnn4C)c3)no2)cc1C`: the RP-LC retention time amounted to 1300 s.

`CCC(=O)N1CCCc2ccc(NC(=O)c3ccco3)cc21` displayed an RP-LC retention time of 729 s.

`COc1ccc(OC)c(NC(=O)Cn2ncc3c(c2=O)N(C2CC2)C(=O)CS3)c1` registered an RP-LC retention time of 724 s.

Take `COc1ccc(CNC(=O)C2CCc3nc(N4CCOCC4)ncc3C2)cc1` (centres undefined): the RP-LC retention time turned out to be 777 s.
